# According to US10022377B2, “Method of treating hypertension” (Cipla Limited, priority 2015, dated 2018):
# Columns and labels:
# [1] = system: rats with monocrotaline induced pulmonary arterial hypertension; experiment: Hemodynamic evaluation in anesthetized rats treated with monocrotaline to induce pulmonary arterial hypertension; assay type: in vivo, Sprague-Dawley rats; details: for RV/LV + S: Fulton's Index; for RV/LV + S / HR / HW/BW / Heart Wt / LV Wt / Lung Wt / MAP / Mean PAP / RV Wt / RV/BW / Systolic PAP: 28 days, MCT rats, mean ± SEM
# Protocol: The effects of sildenafil and anagrelide were evaluated in rats with monocrotaline induced pulmonary arterial hypertension. Male Sprague-Dawley rats were orally administered vehicle (variable, see below), anagrelide (1 mg/kg given once daily for 28 days or 2 mg/kg total daily dose, divided into a BID regimen given every day for 28 days starting on Day 1), or sildenafil (30 mg/kg, administered twice daily) (n=10 in each group). Rats received a single injection of monocrotaline (60 mg/kg, s.c.) on Study Day 1. On the twenty-eighth day following monocrotaline dosing, the rats were anesthetized with ketamine/xylazine for terminal monitoring of pulmonary and systemic arterial pressures along with heart rate. The study design for the test article and vehicle administrations are detailed below: […]
# [2] = metabolite versus anagrelide; cited from earlier work
# [3] = system: rat monocrotaline (MCT) model of PAH; experiment: Pulmonary arterial hypertension efficacy model: monocrotaline rat; assay type: in vivo, Sprague-Dawley rats; details: in words
# Protocol: Adult male Sprague-Dawley rats (287±4 g) were obtained from Charles River Laboratories (Raleigh, N.C.). Animals housed individually in a temperature/humidity controlled room with 12-hour light/dark cycles, had free access to water and food and were acclimated for one week prior to the study. Rats were randomly assigned to one of the experimental groups (n=10 per group). Rats in groups 1 and 2 served as healthy controls; the remaining rats were injected subcutaneously on Day 0 with 60 mg/kg body weight monocrotaline, the toxic alkaloid of Crotalaria spectabilis, (dissolved in DMSO at a concentration of 60 mg/ml, Sigma Aldrich, St. Louis, Mo.). On days 1-21, the rats were dosed via oral gavage (2 ml/kg) with vehicle (PBS), or the test compound—Anagrelide. Rats were weighed daily, and the dosages of test compound adjusted appropriately.
# Monocrotaline (MCT) is an 11-membered macrocyclic pyrrolizidine plant alkaloid. A single SQ injection into rats results in hepatic generation of toxic metabolite—MCT pyrrole. Phase II metabolism of MCT is through glutathione conjugation. Reactive metabolite is transported to lungs, injuring pulmonary vasculature.
# platelets [4] = details: preclinical pharmacology data; in words; cited from earlier work
# platelets [5] = details: metabolite; in words; cited from earlier work
# [6] = Sildenafil 60 mg/kg/day bid oral
# [7] = 2 mg/kg/day given BID, after 28 days, in words
# [8] = Anagrelide 1 mg/kg once daily oral
# [9] = Anagrelide 2 mg/kg/day bid oral
# [10] = daily oral doses for three weeks
smiles,measurement,setting,value
CCCc1nn(C)c2c(=O)[nH]c(-c3cc(S(=O)(=O)N4CCN(C)CC4)ccc3OCC)nc12 [Sildenafil],RV/LV + S,[1]; [6],0.51 ± 0.03
same,HR,[1]; [6],278 ± 21 bpm
same,HW/BW,[1]; [6],3.89 ± 0.17
same,Heart Wt,[1]; [6],1.24 ± 0.02 g
same,LV Wt,[1]; [6],0.74 ± 0.02 g
same,Lung Wt,[1]; [6],2.36 ± 0.13 g
same,MAP,[1]; [6],69 ± 5 mm Hg
same,Mean PAP,[1]; [6],38± 6 mm Hg
same,RV Wt,[1]; [6],0.38 ± 0.02 g
same,RV/BW,[1]; [6],1.19 ± 0.09
same,Systolic PAP,[1]; [6],46 ± 7 mm Hg
"O=C1NC2=Nc3ccc(Cl)c(Cl)c3CN2C1O (stereo not drawn) [BCH24426, 3-hydroxy anagrelide]",Exposure as measured by plasma AUC compared to anagrelide,[2],approximately 2 fold
"O=C1CN2Cc3c(ccc(Cl)c3Cl)N=C2N1 [Anagrelide, anagrelide]",mean pulmonary arterial pressure compared to the vehicle group,[1]; [7],differences
same,systolic pulmonary arterial pressure compared to the vehicle group,[1]; [7],reduction
same,HR,[1]; [8],325 ± 28 bpm
same,HW/BW,[1]; [8],4.34 ± 0.45
same,Heart Wt,[1]; [8],1.37 ± 0.03 g
same,LV Wt,[1]; [8],0.76 ± 0.01 g
same,Lung Wt,[1]; [8],2.10 ± 0.19 g
same,MAP,[1]; [8],59 ± 5 mm Hg
same,Mean PAP,[1]; [8],36 ± 2 mm Hg
same,RV Wt,[1]; [8],0.47 ± 0.01 g
same,RV/BW,[1]; [8],1.49 ± 0.16
same,Systolic PAP,[1]; [8],44 ± 2 mm Hg
same,HR,[1]; [9],258 ± 10 bpm
same,HW/BW,[1]; [9],3.98 ± 0.24
same,Heart Wt,[1]; [9],1.21 ± 0.04 g
same,LV Wt,[1]; [9],0.69 ± 0.02 g
same,Lung Wt,[1]; [9],2.21 ± 0.07 g
same,MAP,[1]; [9],52 ± 6 mm Hg
same,Mean PAP,[1]; [9],36 ± 2 mm Hg
same,RV Wt,[1]; [9],0.41 ± 0.02 g
same,RV/BW,[1]; [9],1.35 ± 0.12
same,Systolic PAP,[1]; [9],43 ± 4 mm Hg
same,RV/LV + S,[1]; [8],0.62 ± 0.01
same,RV/LV + S,[1]; [9],0.59 ± 0.04
same,hypertrophy when correcting RV (wt) by body weight,"[1]; at either dose, in words",decrease in hypertrophy
same,Mean arterial pressure compared to vehicle,[1]; in words,lower
same,"right ventricular hypertrophy (RV/LV+S, Fulton's Index) compared to vehicle",[1]; in words,no change
same,development of PAH,[3]; daily oral doses for three weeks after MCT 60 mg/kg s.c.,prevent the development of PAH
same,hypertrophy of the right ventricle,[3]; [10],prevents
same,monocrotaline (MCT)-induced elevations in pressure in the pulmonary arterial circuit,[3]; [10],prevents
same,effect on other cellular components of the blood,platelets [4],no significant effect
same,inhibition of platelet aggregation,platelets [4],potent inhibitor
"NC1=Nc2ccc(Cl)c(Cl)c2CN1 [RL603, 5,6-dichloro-3,4-dihydroquinazolin-2-ylamine]",participation in the overall effect of AGRYLIN,platelets [5],does not participate
